Earlier results, collected in patent US6306864A, “Atropisomers of 3-aryl-4(3H)-quinazolinones and their use as AMPA-receptor antagonists” (Pfizer Inc., priority 2000, dated 2001).

What was measured:
[1] = tested on: rat global ischemia models
[2] = tested on: global and focal ischemic damage; details: focal and global ischemia models

Row | Compound | neuroprotection in rat global ischemia models [1] | prevention of global and focal ischemic damage [2]
1 | CC1=NN=C(c2ccc(N)cc2)c2cc3c(cc2C1)OCO3 [GKYI 52466] | effective neuroprotective agent | 
2 | NS(=O)(=O)c1cccc2c1c([N+](=O)[O-])cc1[nH]c(=O)c(=O)[nH]c12 [NBQX, 2,3-dihydroxy-6-nitro-7-sulfamoylbenzo[f-]quinoxaline] |  | effective in preventing global and focal ischemic damage
